ChEMBL document CHEMBL1201862, “PubChem BioAssay data set” (2004)
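A five-concentration, 48-hour dose response in 96-well plates underlies each endpoint, interpolated linearly between surrounding concentrations. Here, GI50 denotes the concentration required for 50% inhibition of growth.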 The source made the active and inactive calls. No stated cut-off is given here; in the data, active = GI50 up to about 1.1 µM and inactive = higher.

Experiments:
Assay in all cases: growth of human tumour cells (NCI), 48 h
M14 = system: M14
SNB-75 = system: SNB-75
NCI-H226 = system: NCI-H226
SF-539 = system: SF-539
COLO 205 = system: COLO 205
A549 = system: A549
KM12 = system: KM12
UACC-257 = system: UACC-257
MDA-N = system: MDA-N
DU-145 = system: DU-145
OVCAR-8 = system: OVCAR-8
HOP-62 = system: HOP-62
K562 = system: K562
SW-620 = system: SW-620
OVCAR-4 = system: OVCAR-4
ACHN = system: ACHN
MDA-MB-435 = system: MDA-MB-435
NCI-H23 = system: NCI-H23

SMILES	GI50 (M14)	GI50 (SNB-75)	GI50 (NCI-H226)	GI50 (SF-539)	GI50 (COLO 205)	GI50 (A549)	GI50 (KM12)	GI50 (UACC-257)	GI50 (MDA-N)	GI50 (DU-145)	GI50 (OVCAR-8)	GI50 (HOP-62)	GI50 (K562)	GI50 (SW-620)	GI50 (OVCAR-4)	GI50 (ACHN)	GI50 (MDA-MB-435)	GI50 (NCI-H23)
COC(=O)/C=C(\CC(=O)OC)n1nnnc1[C@@H]1C[C@H](COC(c2ccccc2)(c2ccccc2)c2ccccc2)[C@H]2OC(C)(C)O[C@H]21	> 100 µM (inactive)	37.2 µM (inactive)	> 100 µM (inactive)	> 100 µM (inactive)	39.3 µM (inactive)	> 100 µM (inactive)	> 100 µM (inactive)	> 100 µM (inactive)	> 100 µM (inactive)	> 100 µM (inactive)	> 100 µM (inactive)	> 100 µM (inactive)	65.5 µM (inactive)	> 100 µM (inactive)	> 100 µM (inactive)	> 100 µM (inactive)	> 100 µM (inactive)	
CCc1cc2c(c3c1CCC3=O)CC1(Cc3ccc(C)cc3C1)C2 (stereo not given)	> 100 µM (inactive)		13.5 µM (inactive)	> 100 µM (inactive)	27.8 µM (inactive)	18.2 µM (inactive)	71.3 µM (inactive)	32.2 µM (inactive)	38.1 µM (inactive)		> 100 µM (inactive)	> 100 µM (inactive)	30.5 µM (inactive)		33.2 µM (inactive)	27.3 µM (inactive)	33.7 µM (inactive)	> 100 µM (inactive)
S=C(NCCc1ccccn1)N/N=C/c1ccccn1	0.0131 µM (active)	9.35 µM (inactive)	0.0598 µM (active)	0.127 µM (active)	< 0.01 µM (active)	0.578 µM (active)	0.106 µM (active)	< 0.0113 µM (active)	1.91 µM (inactive)	1.48 µM (inactive)	0.0489 µM (active)	0.0149 µM (active)	< 0.01 µM (active)	< 0.01 µM (active)	0.519 µM (active)	< 0.01 µM (active)	4.09 µM (inactive)	< 0.01 µM (active)
CSC1=N/C(=C\c2ccc(Cl)cc2)C(=O)N1CN1CCCCC1	79.1 µM (inactive)	46.2 µM (inactive)	> 100 µM (inactive)		60.1 µM (inactive)	42.4 µM (inactive)	49.5 µM (inactive)		56.8 µM (inactive)	89.3 µM (inactive)	37.1 µM (inactive)	20.4 µM (inactive)	53.7 µM (inactive)	34.9 µM (inactive)		25.4 µM (inactive)	35.9 µM (inactive)	64.3 µM (inactive)
COc1ccc(C2S/C(=C\c3ccccc3)C(=O)N2NC(=O)Cc2ccccc2)cc1 (stereo not given)	> 100 µM (inactive)	> 100 µM (inactive)	> 100 µM (inactive)	> 100 µM (inactive)	> 100 µM (inactive)	> 100 µM (inactive)	> 100 µM (inactive)	> 100 µM (inactive)			> 100 µM (inactive)	> 100 µM (inactive)	> 100 µM (inactive)	> 100 µM (inactive)	> 100 µM (inactive)	> 100 µM (inactive)		> 100 µM (inactive)
Cc1cccc(C(C)(C)C)c1NC(=O)CC1C(=O)Nc2ccccc2S1(=O)=O (stereo not given)	12.8 µM (inactive)	12.5 µM (inactive)	16.7 µM (inactive)	3.14 µM (inactive)		13.6 µM (inactive)		27.6 µM (inactive)			10.6 µM (inactive)		2.84 µM (inactive)	10.4 µM (inactive)	11.4 µM (inactive)	10.8 µM (inactive)		5.38 µM (inactive)
OC(c1cccs1)c1cc2ccccc2s1 (stereo not given)	> 10 µM (inactive)	> 10 µM (inactive)	> 10 µM (inactive)	> 10 µM (inactive)	> 10 µM (inactive)	> 10 µM (inactive)	> 10 µM (inactive)	> 10 µM (inactive)	> 10 µM (inactive)	> 10 µM (inactive)	> 10 µM (inactive)	> 10 µM (inactive)	> 10 µM (inactive)	> 10 µM (inactive)	> 10 µM (inactive)	> 10 µM (inactive)	> 10 µM (inactive)	> 10 µM (inactive)
C[C@]12CCc3nonc3C1CC[C@@H]1C2CC[C@]2(C)NC(=O)CCC12 (stereo not given in full)	> 100 µM (inactive)	> 100 µM (inactive)	> 100 µM (inactive)	> 100 µM (inactive)	> 100 µM (inactive)	> 100 µM (inactive)	> 100 µM (inactive)	> 100 µM (inactive)			> 100 µM (inactive)	> 100 µM (inactive)	> 100 µM (inactive)	> 100 µM (inactive)	> 100 µM (inactive)	> 100 µM (inactive)		> 100 µM (inactive)
CCCCCCCCCCCCCCCCNC(=O)/C(O)=C/C(=O)c1ccc(C)cc1	> 10 µM (inactive)	> 10 µM (inactive)	> 10 µM (inactive)	> 10 µM (inactive)	> 10 µM (inactive)		> 10 µM (inactive)	> 10 µM (inactive)	> 10 µM (inactive)	> 10 µM (inactive)	> 10 µM (inactive)	> 10 µM (inactive)	> 10 µM (inactive)	> 10 µM (inactive)	> 10 µM (inactive)	> 10 µM (inactive)	> 10 µM (inactive)	> 10 µM (inactive)
Cc1cc2c(cc1-c1cc3c(cc1C)C(C(C)C)=C(O)C(=O)/C3=C\Nc1ccccn1)/C(=C/Nc1ccccn1)C(=O)C(O)=C2C(C)C	87.5 µM (inactive)	63.4 µM (inactive)	23 µM (inactive)	85.1 µM (inactive)	> 100 µM (inactive)	31.3 µM (inactive)	24.5 µM (inactive)	> 100 µM (inactive)	76.7 µM (inactive)	> 100 µM (inactive)	29 µM (inactive)		31.8 µM (inactive)	48 µM (inactive)	34.9 µM (inactive)	43.3 µM (inactive)	43.5 µM (inactive)	46.9 µM (inactive)
C=C(CN(CC)CC)C1(c2ccccc2)CC2(CCCC2)C(=O)O1 (stereo not given)	45.5 µM (inactive)	33 µM (inactive)	48 µM (inactive)	> 100 µM (inactive)	55 µM (inactive)	> 100 µM (inactive)	> 100 µM (inactive)	34.4 µM (inactive)	> 100 µM (inactive)	> 100 µM (inactive)	> 100 µM (inactive)	> 100 µM (inactive)	> 100 µM (inactive)	> 100 µM (inactive)	> 100 µM (inactive)	> 100 µM (inactive)	> 100 µM (inactive)	33 µM (inactive)
CCNc1cc2c3c(c1)CCN3CCC2	> 10 µM (inactive)	> 10 µM (inactive)	> 10 µM (inactive)	> 10 µM (inactive)	> 10 µM (inactive)	> 10 µM (inactive)	5.6 µM (inactive)	> 10 µM (inactive)	> 10 µM (inactive)	> 10 µM (inactive)	8.59 µM (inactive)	> 10 µM (inactive)	1.72 µM (inactive)	6.3 µM (inactive)	> 10 µM (inactive)	> 10 µM (inactive)	> 10 µM (inactive)	> 10 µM (inactive)
